Test results reported in ChEMBL document CHEMBL5465560, “Selectivity Literature for EUbOPEN Chemogenomic Library” (2024).
Blank lines part the entries; values can stand above or below the compound they belong to.

What was measured:
[1] = target: Serine/threonine-protein kinase PLK1 (Homo sapiens, UniProt P53350); experiment: Selectivity interaction (ActivX KiNativ screen (kinase selectivity in THP-1 cell lysates)) EUB0000639a PLK1; format: subcellular; conditions: lysate, at 0.01 µM
[2] = target: T1, NUAK family SNF1-like kinase 2 (Homo sapiens) (UniProt Q9H093); experiment: Selectivity interaction (KinomeScan (DiscoverX)) EUB0000595a NUAK2; conditions: at 10 µM
T1 sequence (whole entry): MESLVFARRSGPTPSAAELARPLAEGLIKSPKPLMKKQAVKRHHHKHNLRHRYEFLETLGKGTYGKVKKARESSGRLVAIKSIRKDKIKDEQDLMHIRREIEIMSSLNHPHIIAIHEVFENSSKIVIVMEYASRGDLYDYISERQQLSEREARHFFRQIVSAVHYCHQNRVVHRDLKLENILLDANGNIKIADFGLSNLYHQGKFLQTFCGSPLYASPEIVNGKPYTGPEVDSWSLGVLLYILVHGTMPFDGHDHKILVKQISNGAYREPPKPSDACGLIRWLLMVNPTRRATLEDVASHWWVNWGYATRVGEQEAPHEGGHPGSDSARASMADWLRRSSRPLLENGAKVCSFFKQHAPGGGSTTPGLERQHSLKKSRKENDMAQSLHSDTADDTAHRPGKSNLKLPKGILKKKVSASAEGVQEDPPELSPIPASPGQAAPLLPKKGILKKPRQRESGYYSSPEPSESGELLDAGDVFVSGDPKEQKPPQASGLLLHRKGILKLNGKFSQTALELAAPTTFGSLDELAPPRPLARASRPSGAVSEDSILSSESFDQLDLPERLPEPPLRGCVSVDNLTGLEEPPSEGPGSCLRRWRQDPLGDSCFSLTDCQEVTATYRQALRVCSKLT

[3] = target: Serine/threonine-protein kinase N1 (Homo sapiens, UniProt Q16512); experiment: Selectivity interaction (KinomeScan (DiscoverX)) EUB0000229b PKN1; conditions: at 10 µM
[4] = target: MAP kinase-interacting serine/threonine-protein kinase 1 (Homo sapiens) (UniProt Q9BUB5); experiment: Selectivity interaction (KinomeScan (DiscoverX)) EUB0000229b MKNK1; conditions: at 10 µM
[5] = target: T2, Serine/threonine-protein kinase ULK1 (Homo sapiens) (UniProt O75385); experiment: Selectivity interaction (KinomeScan (DiscoverX)) EUB0001079a ULK1; conditions: at 1 µM
T2 sequence (whole entry): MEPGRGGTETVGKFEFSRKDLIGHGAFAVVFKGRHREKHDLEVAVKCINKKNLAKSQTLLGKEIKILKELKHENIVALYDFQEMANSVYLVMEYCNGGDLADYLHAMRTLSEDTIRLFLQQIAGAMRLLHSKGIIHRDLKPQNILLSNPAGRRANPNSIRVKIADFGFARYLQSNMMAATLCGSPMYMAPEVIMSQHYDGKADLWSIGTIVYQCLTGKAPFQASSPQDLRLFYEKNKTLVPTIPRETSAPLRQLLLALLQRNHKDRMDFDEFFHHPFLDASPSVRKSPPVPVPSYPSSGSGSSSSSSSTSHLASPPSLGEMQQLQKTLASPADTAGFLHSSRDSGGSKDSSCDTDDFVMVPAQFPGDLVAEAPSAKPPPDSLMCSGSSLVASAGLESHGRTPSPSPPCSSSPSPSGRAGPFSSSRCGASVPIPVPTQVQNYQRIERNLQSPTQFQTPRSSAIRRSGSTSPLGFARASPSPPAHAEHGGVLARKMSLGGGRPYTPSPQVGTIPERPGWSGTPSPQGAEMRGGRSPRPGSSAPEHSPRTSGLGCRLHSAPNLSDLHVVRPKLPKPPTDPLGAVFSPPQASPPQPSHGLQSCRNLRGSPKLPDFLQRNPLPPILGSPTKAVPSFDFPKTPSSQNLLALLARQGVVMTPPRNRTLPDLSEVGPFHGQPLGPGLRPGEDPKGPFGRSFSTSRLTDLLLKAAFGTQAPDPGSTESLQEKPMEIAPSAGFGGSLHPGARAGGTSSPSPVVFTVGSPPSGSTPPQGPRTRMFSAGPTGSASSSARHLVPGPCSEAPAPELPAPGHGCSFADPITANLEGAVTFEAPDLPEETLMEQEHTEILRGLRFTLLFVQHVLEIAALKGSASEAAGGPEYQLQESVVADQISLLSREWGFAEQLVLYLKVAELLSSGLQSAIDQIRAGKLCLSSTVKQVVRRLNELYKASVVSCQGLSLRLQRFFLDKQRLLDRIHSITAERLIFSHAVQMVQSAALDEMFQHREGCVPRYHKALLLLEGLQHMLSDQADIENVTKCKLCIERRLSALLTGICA

[6] = target: T3, Megakaryocyte-associated tyrosine-protein kinase (Homo sapiens) (UniProt P42679); experiment: Selectivity interaction (KinomeScan (DiscoverX)) EUB0000607a MATK; conditions: at 10 µM
T3 sequence (whole entry): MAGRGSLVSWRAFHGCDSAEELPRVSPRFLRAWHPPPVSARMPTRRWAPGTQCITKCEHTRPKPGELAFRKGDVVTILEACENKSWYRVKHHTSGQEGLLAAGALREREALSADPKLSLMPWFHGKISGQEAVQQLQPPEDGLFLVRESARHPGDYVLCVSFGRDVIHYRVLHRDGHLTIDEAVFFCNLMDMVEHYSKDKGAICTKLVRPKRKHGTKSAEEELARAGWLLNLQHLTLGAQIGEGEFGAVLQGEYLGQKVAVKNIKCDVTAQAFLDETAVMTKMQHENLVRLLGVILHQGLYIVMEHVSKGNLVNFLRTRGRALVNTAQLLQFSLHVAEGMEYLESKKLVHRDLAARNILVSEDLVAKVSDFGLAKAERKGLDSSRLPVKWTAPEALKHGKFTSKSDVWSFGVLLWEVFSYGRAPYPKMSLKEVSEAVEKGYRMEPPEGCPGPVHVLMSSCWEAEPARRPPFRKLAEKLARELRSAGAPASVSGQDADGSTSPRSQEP

[7] = target: Dual specificity mitogen-activated protein kinase kinase 1 (Homo sapiens, UniProt Q02750); experiment: Selectivity interaction (Kinase panel (KiNativ target engagement assay in Jurkat cells)) EUB0001635a MAP2K1; format: cell-based; conditions: Selectivity number of off-targets 0.0, Selectivity number of targets 233.0, Source Knowledge https://www.sciencedirect.com/science/article/pii/S2451945619300674?via%3Dihub, at 1 µM
[8] = target: Mitogen-activated protein kinase kinase kinase kinase 5 (Homo sapiens) (UniProt Q9Y4K4); experiment: Selectivity interaction (KinomeScan (DiscoverX)) EUB0000666a MAP4K5; conditions: at 10 µM
Sequence of Mitogen-activated protein kinase kinase kinase kinase 5 (Homo sapiens) (Q9Y4K4 whole entry, looked up): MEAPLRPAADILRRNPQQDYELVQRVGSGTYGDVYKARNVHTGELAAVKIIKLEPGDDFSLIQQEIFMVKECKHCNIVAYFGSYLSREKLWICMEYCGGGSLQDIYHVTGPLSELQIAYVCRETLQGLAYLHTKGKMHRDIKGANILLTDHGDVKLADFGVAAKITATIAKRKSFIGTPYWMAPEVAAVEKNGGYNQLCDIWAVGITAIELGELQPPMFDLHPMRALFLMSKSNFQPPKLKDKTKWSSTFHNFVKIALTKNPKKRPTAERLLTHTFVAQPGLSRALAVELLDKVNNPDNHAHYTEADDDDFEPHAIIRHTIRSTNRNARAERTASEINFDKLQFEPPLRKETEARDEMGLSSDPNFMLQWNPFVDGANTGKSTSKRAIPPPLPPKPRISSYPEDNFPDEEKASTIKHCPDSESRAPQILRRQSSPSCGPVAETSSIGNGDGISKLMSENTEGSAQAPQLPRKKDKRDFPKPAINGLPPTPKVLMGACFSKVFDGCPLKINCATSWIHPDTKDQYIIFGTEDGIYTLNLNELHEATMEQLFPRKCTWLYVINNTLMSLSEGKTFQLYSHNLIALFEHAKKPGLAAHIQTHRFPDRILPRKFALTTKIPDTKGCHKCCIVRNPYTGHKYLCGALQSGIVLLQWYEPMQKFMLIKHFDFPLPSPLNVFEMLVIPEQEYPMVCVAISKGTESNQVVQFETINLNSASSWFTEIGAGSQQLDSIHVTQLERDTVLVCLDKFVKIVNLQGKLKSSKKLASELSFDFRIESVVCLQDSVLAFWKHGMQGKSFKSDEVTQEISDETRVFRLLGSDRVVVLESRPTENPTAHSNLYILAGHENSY

Sequence of MAP kinase-interacting serine/threonine-protein kinase 1 (Homo sapiens) (Q9BUB5 whole entry, looked up): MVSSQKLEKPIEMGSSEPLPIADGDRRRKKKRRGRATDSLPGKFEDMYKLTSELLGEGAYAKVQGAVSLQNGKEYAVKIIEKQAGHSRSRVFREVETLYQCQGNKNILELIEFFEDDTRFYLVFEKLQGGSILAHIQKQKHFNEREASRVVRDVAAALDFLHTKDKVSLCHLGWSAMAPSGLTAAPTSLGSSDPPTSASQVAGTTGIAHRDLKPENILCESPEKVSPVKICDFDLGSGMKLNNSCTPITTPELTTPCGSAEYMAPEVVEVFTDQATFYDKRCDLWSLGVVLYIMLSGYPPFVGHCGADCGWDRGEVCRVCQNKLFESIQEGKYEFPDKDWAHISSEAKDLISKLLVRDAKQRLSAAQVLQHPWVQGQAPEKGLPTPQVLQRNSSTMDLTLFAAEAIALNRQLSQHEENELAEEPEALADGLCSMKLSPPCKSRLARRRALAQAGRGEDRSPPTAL
Sequence of Dual specificity mitogen-activated protein kinase kinase 1 (Q02750 whole entry): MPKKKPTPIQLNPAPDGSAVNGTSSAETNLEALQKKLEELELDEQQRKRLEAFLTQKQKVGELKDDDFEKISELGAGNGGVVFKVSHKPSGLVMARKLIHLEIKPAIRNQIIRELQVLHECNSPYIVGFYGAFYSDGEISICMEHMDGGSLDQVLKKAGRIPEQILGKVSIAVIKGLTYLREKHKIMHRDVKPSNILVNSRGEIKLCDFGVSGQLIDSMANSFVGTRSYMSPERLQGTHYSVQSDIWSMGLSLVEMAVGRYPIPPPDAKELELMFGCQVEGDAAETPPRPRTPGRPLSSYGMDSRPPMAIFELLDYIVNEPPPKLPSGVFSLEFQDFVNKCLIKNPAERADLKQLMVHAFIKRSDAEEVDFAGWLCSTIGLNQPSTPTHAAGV
Sequence of Serine/threonine-protein kinase N1 (Q16512 2-942 limits assumed): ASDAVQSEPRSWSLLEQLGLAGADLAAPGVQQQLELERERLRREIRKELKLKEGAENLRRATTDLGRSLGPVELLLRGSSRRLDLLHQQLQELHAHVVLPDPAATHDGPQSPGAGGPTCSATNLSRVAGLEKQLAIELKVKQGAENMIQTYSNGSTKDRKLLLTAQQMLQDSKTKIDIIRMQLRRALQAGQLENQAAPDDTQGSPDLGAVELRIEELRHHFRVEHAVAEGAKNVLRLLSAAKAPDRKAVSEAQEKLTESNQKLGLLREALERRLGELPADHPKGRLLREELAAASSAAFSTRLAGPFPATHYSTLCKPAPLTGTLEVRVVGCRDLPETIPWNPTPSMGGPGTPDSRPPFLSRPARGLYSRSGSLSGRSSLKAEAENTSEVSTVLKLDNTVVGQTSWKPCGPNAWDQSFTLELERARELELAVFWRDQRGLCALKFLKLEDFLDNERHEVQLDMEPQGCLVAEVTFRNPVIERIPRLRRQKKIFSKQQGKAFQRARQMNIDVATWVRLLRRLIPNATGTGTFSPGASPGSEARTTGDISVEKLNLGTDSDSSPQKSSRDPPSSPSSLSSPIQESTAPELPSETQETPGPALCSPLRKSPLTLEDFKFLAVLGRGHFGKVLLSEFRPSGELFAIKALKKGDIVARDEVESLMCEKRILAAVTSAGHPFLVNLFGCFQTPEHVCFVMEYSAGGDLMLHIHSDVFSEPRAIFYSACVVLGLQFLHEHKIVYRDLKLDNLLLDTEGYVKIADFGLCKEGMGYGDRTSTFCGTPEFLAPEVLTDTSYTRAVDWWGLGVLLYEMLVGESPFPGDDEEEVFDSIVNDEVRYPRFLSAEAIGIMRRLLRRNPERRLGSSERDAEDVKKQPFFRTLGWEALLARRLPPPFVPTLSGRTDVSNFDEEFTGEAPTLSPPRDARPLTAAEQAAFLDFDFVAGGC
Sequence of Serine/threonine-protein kinase PLK1 (P53350 whole entry): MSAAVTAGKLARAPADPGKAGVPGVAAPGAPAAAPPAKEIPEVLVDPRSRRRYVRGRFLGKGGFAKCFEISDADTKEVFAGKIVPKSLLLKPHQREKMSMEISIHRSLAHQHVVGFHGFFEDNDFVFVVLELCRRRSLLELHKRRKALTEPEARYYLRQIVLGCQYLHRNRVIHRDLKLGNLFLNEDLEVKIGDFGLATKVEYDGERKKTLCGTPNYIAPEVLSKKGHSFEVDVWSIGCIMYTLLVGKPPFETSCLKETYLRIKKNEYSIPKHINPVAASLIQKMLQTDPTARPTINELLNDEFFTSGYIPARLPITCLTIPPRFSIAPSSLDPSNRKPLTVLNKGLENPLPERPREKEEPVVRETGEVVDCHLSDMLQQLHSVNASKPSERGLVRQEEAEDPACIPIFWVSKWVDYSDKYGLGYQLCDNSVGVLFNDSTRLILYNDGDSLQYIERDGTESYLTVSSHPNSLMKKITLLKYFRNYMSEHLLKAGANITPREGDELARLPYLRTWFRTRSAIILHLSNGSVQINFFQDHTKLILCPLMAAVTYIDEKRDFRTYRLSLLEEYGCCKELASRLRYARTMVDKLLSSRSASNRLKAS

% of inhibition [1]: -0.3%
SMILES: CC[C@@H]1[C@H](F)C(=O)N[C@@H]1COc1nccc2cc(C(N)=O)c(OC)cc12 [ZIMLOVISERTIB]

SMILES: COCC(=O)NC/C=C/c1ccc2ncnc(Nc3ccc(Oc4ccc(C)nc4)c(C)c3)c2c1 [CP-724714]
% of control [2]: 100%

SMILES: COc1cc(N(C)c2ccnc3ccc(C(F)(F)F)cc23)cc(OC)c1OC
% binding [3]: 81% | % binding [4]: 89%

SMILES: Nc1cnc(N2CCc3cc(S(=O)(=O)Nc4c(F)cc(Cl)cc4F)cc(N4CCCC4=O)c32)nc1 [TP-020n]
% of control [5]: 95%

SMILES: CNC(=O)Nc1ccc(-c2nc(N3CC4CCC(C3)O4)c3cnn(C4CCC5(CC4)OCCO5)c3n2)cc1
% of control [6]: 100%

SMILES: C=CC(=O)Nc1ccc(C(=O)Nc2[nH]nc3c2CN(C(=O)N[C@H](CN(C)C)c2ccccc2)C3(C)C)cc1
% of engagement [7]: 4.8%

SMILES: O=C(NOC[C@H](O)CO)c1ccc(F)c(F)c1Nc1ccc(I)cc1F
% of control [8]: 69%
